Measurements taken from PubChem BioAssay AID1259407 (Chemical Carcinogenesis Research Information System (CCRIS), 2018).
Calls of active or inactive are those of the source. How the calls were made is not given here.

Tested on: CCRIS mutagenicity, Ames/micronucleus/aberration tests
Test: CCRIS mutagenicity studies
[1] = Test System: AMES SALMONELLA TYPHIMURIUM, Strain/Indicator: TA97, Metabolic Activation: NONE, Method: STANDARD PLATE
[2] = Test System: AMES SALMONELLA TYPHIMURIUM, Strain/Indicator: TA97, Metabolic Activation: RAT, LIVER, S-9, PCB, Method: STANDARD PLATE
[3] = Test System: AMES SALMONELLA TYPHIMURIUM, Strain/Indicator: TA98, Metabolic Activation: NONE, Method: PREINCUBATION
[4] = Test System: AMES SALMONELLA TYPHIMURIUM, Strain/Indicator: TA98, Metabolic Activation: RAT LIVER S-9, PHENOBARBITAL AND BETA-NAPHTHOFLAVONE, Method: PREINCUBATION
[5] = Test System: AMES SALMONELLA TYPHIMURIUM, Strain/Indicator: TA100, Metabolic Activation: NONE, Method: STANDARD PLATE
[6] = Test System: AMES SALMONELLA TYPHIMURIUM, Strain/Indicator: TA100, Metabolic Activation: RAT LIVER S-9, PHENOBARBITAL AND BETA-NAPHTHOFLAVONE, Method: PREINCUBATION
[7] = Test System: AMES SALMONELLA TYPHIMURIUM, Strain/Indicator: TA100, Metabolic Activation: RAT, LIVER, S-9, PCB, Method: STANDARD PLATE
[8] = Test System: AMES SALMONELLA TYPHIMURIUM, Strain/Indicator: TA1535, Metabolic Activation: NONE, Method: PREINCUBATION
[9] = Test System: AMES SALMONELLA TYPHIMURIUM, Strain/Indicator: TA1537, Metabolic Activation: NONE, Method: PREINCUBATION
[10] = Test System: AMES SALMONELLA TYPHIMURIUM, Strain/Indicator: TA1537, Metabolic Activation: RAT LIVER S-9, PHENOBARBITAL AND BETA-NAPHTHOFLAVONE, Method: PREINCUBATION
[11] = Test System: E.COLI, Strain/Indicator: WP2UVRA, Metabolic Activation: NONE, Method: PREINCUBATION
[12] = Test System: E.COLI, Strain/Indicator: WP2UVRA, Metabolic Activation: RAT LIVER S-9, PHENOBARBITAL AND BETA-NAPHTHOFLAVONE, Method: PREINCUBATION

Measured: mutagenic call

c1ccc2cc3ccccc3cc2c1
active: End Point: In vitro chromosomal aberrations, Test System: Chinese hamster lung (CHL/IU) cells, Metabolic Activation: Rat, Liver, S9, Phenobarbital and 5,6-benzoflavone active; positive (structural changes and ploidy). weak response for ploidy. | [2] active; positive | Test System: MOUSE LYMPHOMA, Strain/Indicator: L5178Y (TK+/TK-), Metabolic Activation: RAT, LIVER, S-9, AROCLOR 1254, Method: SUSPENSION/PLATE active; positive | Test System: MOUSE LYMPHOMA, Strain/Indicator: L5178Y (TK+/TK-), Metabolic Activation: RAT, LIVER, S-9, Method: SUSPENSION/PLATE active; positive
inactive: [1] inactive; negative | [3] inactive; negative | Test System: AMES SALMONELLA TYPHIMURIUM, Strain/Indicator: TA98, Metabolic Activation: NONE, Method: STANDARD PLATE inactive; negative | [4] inactive; negative | Test System: AMES SALMONELLA TYPHIMURIUM, Strain/Indicator: TA98, Metabolic Activation: RAT, LIVER, S-9, AROCLOR 1254, Method: STANDARD PLATE inactive; negative | Test System: AMES SALMONELLA TYPHIMURIUM, Strain/Indicator: TA98, Metabolic Activation: RAT, LIVER, S-9, PCB, Method: STANDARD PLATE inactive; negative | [5] inactive; negative | [6] inactive; negative | Test System: AMES SALMONELLA TYPHIMURIUM, Strain/Indicator: TA100, Metabolic Activation: RAT, LIVER, S-9, AROCLOR 1254, Method: STANDARD PLATE inactive; negative | [7] inactive; negative | [8] inactive; negative | Test System: AMES SALMONELLA TYPHIMURIUM, Strain/Indicator: TA1535, Metabolic Activation: RAT LIVER S-9, PHENOBARBITAL AND BETA-NAPHTHOFLAVONE, Method: PREINCUBATION inactive; negative | [9] inactive; negative | [10] inactive; negative | Test System: AMES SALMONELLA TYPHIMURIUM, Strain/Indicator: TA1538, Metabolic Activation: NONE, Method: PREINCUBATION inactive; negative | Test System: AMES SALMONELLA TYPHIMURIUM, Strain/Indicator: TA1538, Metabolic Activation: RAT LIVER S-9, PHENOBARBITAL AND BETA-NAPHTHOFLAVONE, Method: PREINCUBATION inactive; negative | Test System: E. COLI, Strain/Indicator: WP2 UVRA, Metabolic Activation: HAMSTER, LIVER, S-9, AROCLOR 1254, Method: STANDARD PLATE inactive; negative | Test System: E. COLI, Strain/Indicator: WP2 UVRA, Metabolic Activation: HAMSTER, LIVER, S-9, Method: STANDARD PLATE inactive; negative | Test System: E. COLI, Strain/Indicator: WP2 UVRA, Metabolic Activation: MOUSE, LIVER, S-9, AROCLOR 1254, Method: STANDARD PLATE inactive; negative | Test System: E. COLI, Strain/Indicator: WP2 UVRA, Metabolic Activation: MOUSE, LIVER, S-9, Method: STANDARD PLATE inactive; negative | Test System: E. COLI, Strain/Indicator: WP2 UVRA, Metabolic Activation: NONE, Method: STANDARD PLATE inactive; negative | Test System: E. COLI, Strain/Indicator: WP2 UVRA, Metabolic Activation: RAT, LIVER, S-9, AROCLOR 1254, Method: STANDARD PLATE inactive; negative | Test System: E. COLI, Strain/Indicator: WP2 UVRA, Metabolic Activation: RAT, LIVER, S-9, Method: STANDARD PLATE inactive; negative | [11] inactive; negative | [12] inactive; negative | Test System: MOUSE LYMPHOMA, Strain/Indicator: L5178Y (TK+/TK-), Metabolic Activation: NONE, Method: SUSPENSION/PLATE inactive; negative

CN(N=O)c1ccccc1
active: Test System: AMES SALMONELLA TYPHIMURIUM, Strain/Indicator: TA100, Metabolic Activation: RAT, LIVER, S-9, AROCLOR 1254, Method: PREINCUBATION active; positive | Test System: AMES SALMONELLA TYPHIMURIUM, Strain/Indicator: TA104, Metabolic Activation: RAT, LIVER, S-9, AROCLOR 1254, Method: PREINCUBATION active; positive | Test System: AMES SALMONELLA TYPHIMURIUM, Strain/Indicator: TA1537, Metabolic Activation: RAT, LIVER, S-9, PYRAZOLE, Method: STANDARD PLATE active; positive | Test System: AMES SALMONELLA TYPHIMURIUM, Strain/Indicator: TA1537, Metabolic Activation: RAT, LIVER, S-9, Method: LIQUID INCUBATION active; positive | Test System: AMES SALMONELLA TYPHIMURIUM, Strain/Indicator: TA2638, Metabolic Activation: RAT, LIVER, S-9, AROCLOR 1254, Method: PREINCUBATION active; positive | Test System: AMES SALMONELLA TYPHIMURIUM, Strain/Indicator: YG7108-2A6-OR, Metabolic Activation: NONE, Method: PREINCUBATION active; positive | Test System: AMES SALMONELLA TYPHIMURIUM, Strain/Indicator: YG7108-2A6, Metabolic Activation: NONE, Method: PREINCUBATION active; positive
inactive: Test System: AMES SALMONELLA TYPHIMURIUM, Strain/Indicator: HISG428, Metabolic Activation: RAT, LIVER, S-9, AROCLOR 1254, Method: PREINCUBATION inactive; negative | Test System: AMES SALMONELLA TYPHIMURIUM, Strain/Indicator: TA1537, Metabolic Activation: RAT, LIVER, S-9, PHENOBARBITAL, Method: STANDARD PLATE inactive; negative | Test System: AMES SALMONELLA TYPHIMURIUM, Strain/Indicator: TA2659, Metabolic Activation: RAT, LIVER, S-9, AROCLOR 1254, Method: PREINCUBATION inactive; negative | Test System: AMES SALMONELLA TYPHIMURIUM, Strain/Indicator: YG7108-PCW, Metabolic Activation: NONE, Method: PREINCUBATION inactive; negative | Test System: AMES SALMONELLA TYPHIMURIUM, Strain/Indicator: YG7108, Metabolic Activation: RAT LIVER S-9, PHENOBARBITAL AND 5,6-BENZOFLAVONE, Method: PREINCUBATION inactive; negative

CC(Br)CBr (stereo not given)
inactive: [1] inactive; negative | [2] inactive; negative | [3] inactive; negative | [4] inactive; negative | Test System: AMES SALMONELLA TYPHIMURIUM, Strain/Indicator: TA100, Metabolic Activation: NONE, Method: PREINCUBATION inactive; negative | [5] inactive; negative | [6] inactive; negative | [7] inactive; negative | Test System: AMES SALMONELLA TYPHIMURIUM, Strain/Indicator: TA1534, Metabolic Activation: HOST-MEDIATED, Method: IN VIVO inactive; negative | [8] inactive; negative | [9] inactive; negative | [10] inactive; negative | Test System: AMES SALMONELLA TYPHIMURIUM, Strain/Indicator: TA1950, Metabolic Activation: HOST-MEDIATED, Method: IN VIVO inactive; negative | [11] inactive; negative | [12] inactive; negative
active: Test System: AMES SALMONELLA TYPHIMURIUM, Strain/Indicator: TA100, Metabolic Activation: RAT, LIVER, MICROSOMES, PHENOBARBITAL, NADPH COFACTORS, Method: STANDARD PLATE active; positive | Test System: AMES SALMONELLA TYPHIMURIUM, Strain/Indicator: TA100, Metabolic Activation: RAT, LIVER, MICROSOMES, PHENOBARBITAL, Method: STANDARD PLATE active; positive | Test System: UDS RAT HEPATOCYTES, Strain/Indicator: THY INCORP, Metabolic Activation: NONE active; positive
